# Source: patent US20190083477A1, “Cyclooxygenase Inhibitor and Calcium Channel Antagonist Compositions and Methods for Use in Urological Procedures” (Omeros Corporation, priority 2005, published 2019)
# pEC50, pIC50: −log10 of the molar value. Ends that are not written are not given here.
# How the values were obtained:
# rat urinary bladder = experiment: In vivo rat cystometry model, 0.2% acetic acid infusion (Example I); details: 10 mg/kg intravenous
# Procedure: The rats were anesthetized with urethane at 1.2 g/kg i.p. in 5 ml/kg. A polyethylene catheter (PE50) was implanted into the bladder for saline or acetic acid infusion through a 3-way stopcock. A pressure transducer was connected for measurements of intravesical pressure. Warm (37° C.) saline was infused into the bladder at a constant rate of […] (1 ml/hour) until cystometry became stable (no less than 60 minutes). Thereafter, 0.2% acetic acid was infused into the urinary bladder. Aspirin (10 mg/kg i.v.) and vehicle were administered intravenously via a PE-10 catheter in the femoral vein at 5 minutes after infusion of acetic acid was started and at the end of first micturition cycle. Dunnett's test was applied for comparison between the time before and after test substance or vehicle treatment. To ascertain differences between the test substance and the vehicle control group, an unpaired Student's t test was used. Differences are considered significant at […].
# rat bladder = experiment: Acetic-acid overactive bladder model, intravesical delivery, cystometry (Example V); type: in vivo
# Procedure: In this model, acute inflammation of the bladder is produced by using 0.2% acetic acid in saline as the bladder perfusion fluid and cystometry under anesthesia is performed after a recovery period from the surgical procedure.
# The animals were anesthesized and bladder catheters were surgically implanted to allow irrigation of the test agents. The following cystometry parameters were monitored: intercontraction interval (ICI), trigger pressure (TP), micturition pressure (MP) and micturition volume (MV) using a Med Associates Cystometry Station and software program. […] Following the saline period, the rat bladder was infused with test agent in saline containing 0.2% acetic acid for 20 min followed by the collection of 7 representative ICI intervals for analysis.
# Five to seven animals were normally tested in each group. Acidified saline served as the control. All infusion solutions were prepared fresh on the day of the experiment before use.
# COX = details: read-out: IC50 in a non-selective COX assay; cited from earlier work
# [1] = tested on: rat bladder tissue strips; experiment: tissue or blood; details: read-out: inhibition of contractile response to bradykinin
# [2] = tested on: bradykinin-stimulated PGE2 release from rat bladder tissue strips; experiment: tissue or blood; details: read-out: inhibition of bradykinin-evoked PGE2 release
# [3] = tested on: bradykinin-induced PGE2 in rat bladder tissue strips; experiment: PGE2 release from urinary bladder strips, enzyme immunoassay (Example I); type: cell-based; details: 10 min, 10 minutes of bradykinin challenge, read-out: BK-induced PGE2 IC50
# [4] = tested on: rat bladder smooth muscle strips; experiment: tissue or blood; details: read-out: BK-induced Contraction IC50
# [5] = tested on: rat bladder smooth muscle strips
# L-type channel = details: cited from earlier work
# Sequence of L-type channel (Q13936 whole entry): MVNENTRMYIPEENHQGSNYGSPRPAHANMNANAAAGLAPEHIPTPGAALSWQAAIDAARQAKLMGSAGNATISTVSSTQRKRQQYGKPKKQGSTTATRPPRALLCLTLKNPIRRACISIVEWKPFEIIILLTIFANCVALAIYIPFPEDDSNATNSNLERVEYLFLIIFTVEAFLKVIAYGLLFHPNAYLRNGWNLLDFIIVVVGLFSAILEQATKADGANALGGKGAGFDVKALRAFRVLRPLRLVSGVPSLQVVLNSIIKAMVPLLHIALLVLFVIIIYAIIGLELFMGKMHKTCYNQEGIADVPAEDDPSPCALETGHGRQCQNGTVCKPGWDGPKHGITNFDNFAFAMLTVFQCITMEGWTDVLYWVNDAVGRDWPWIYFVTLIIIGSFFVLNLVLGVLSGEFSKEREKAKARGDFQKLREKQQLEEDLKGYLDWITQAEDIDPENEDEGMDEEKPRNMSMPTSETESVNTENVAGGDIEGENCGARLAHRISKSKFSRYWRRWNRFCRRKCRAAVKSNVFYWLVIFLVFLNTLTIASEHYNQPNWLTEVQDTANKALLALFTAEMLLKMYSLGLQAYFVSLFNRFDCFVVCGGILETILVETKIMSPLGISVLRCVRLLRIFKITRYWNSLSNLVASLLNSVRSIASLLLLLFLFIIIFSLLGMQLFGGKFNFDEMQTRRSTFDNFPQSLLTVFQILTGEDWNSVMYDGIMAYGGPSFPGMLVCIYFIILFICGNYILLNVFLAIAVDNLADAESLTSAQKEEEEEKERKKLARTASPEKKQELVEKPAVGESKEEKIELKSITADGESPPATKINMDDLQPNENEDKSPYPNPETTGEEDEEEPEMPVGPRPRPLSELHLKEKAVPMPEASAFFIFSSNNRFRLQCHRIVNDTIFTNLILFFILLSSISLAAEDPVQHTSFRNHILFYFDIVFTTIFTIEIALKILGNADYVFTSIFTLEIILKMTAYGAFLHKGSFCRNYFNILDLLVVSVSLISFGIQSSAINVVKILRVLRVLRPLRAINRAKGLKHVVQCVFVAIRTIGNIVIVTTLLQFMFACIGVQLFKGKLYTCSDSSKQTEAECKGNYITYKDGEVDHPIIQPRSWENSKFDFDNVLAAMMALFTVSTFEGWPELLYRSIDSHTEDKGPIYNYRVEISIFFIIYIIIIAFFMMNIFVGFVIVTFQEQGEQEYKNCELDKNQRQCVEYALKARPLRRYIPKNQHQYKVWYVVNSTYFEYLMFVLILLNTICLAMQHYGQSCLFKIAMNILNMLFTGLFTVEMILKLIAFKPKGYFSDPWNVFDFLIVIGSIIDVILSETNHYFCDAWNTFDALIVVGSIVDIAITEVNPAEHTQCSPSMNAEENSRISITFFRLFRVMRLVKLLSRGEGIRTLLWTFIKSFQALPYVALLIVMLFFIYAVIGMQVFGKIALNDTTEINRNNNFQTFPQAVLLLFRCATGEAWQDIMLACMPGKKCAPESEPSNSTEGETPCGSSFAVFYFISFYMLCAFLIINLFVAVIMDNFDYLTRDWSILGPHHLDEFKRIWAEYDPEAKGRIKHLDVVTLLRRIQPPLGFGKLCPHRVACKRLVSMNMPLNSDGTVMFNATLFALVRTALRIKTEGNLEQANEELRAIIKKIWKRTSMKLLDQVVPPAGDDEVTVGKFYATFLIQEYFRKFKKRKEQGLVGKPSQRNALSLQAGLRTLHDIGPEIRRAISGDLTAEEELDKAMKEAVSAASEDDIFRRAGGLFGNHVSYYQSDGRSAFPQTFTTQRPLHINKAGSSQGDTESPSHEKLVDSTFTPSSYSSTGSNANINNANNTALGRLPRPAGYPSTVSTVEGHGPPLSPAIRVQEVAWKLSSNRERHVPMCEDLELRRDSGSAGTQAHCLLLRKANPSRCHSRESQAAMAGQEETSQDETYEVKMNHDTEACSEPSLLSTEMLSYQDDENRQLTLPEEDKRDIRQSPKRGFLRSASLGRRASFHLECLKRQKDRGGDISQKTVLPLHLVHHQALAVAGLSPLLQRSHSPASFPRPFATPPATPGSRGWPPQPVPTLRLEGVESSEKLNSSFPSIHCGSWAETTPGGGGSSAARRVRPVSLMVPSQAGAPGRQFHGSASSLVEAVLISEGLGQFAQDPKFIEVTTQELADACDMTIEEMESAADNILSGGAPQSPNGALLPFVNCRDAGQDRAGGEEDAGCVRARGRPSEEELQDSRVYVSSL
# [6] = in irrigation buffer, 0.2% acetic acid, female rats
compound,measurement,setting,value
CC(=O)Oc1ccccc1C(=O)O [aspirin],Threshold pressure,rat urinary bladder,not affected
same,bladder capacity,rat urinary bladder,parallel changes
same,inhibition of the acetic acid induced reduction in the intercontraction interval (ICI),rat urinary bladder,gradual time-dependent inhibition
same,micturition pressure,rat urinary bladder,not affected
"CC(C(=O)O)c1cccc(C(=O)c2ccccc2)c1 (stereo not drawn) [Ketoprofen, 3-benzoyl-α-methylbenzeneacetic acid]",concentration giving complete inhibition of the shortening of the ICI,rat bladder; [6],approximately 3 μM
same,pIC50,COX,8.10 to 8.40
same,inhibition at 10 µM,[1],67%
same,inhibition at 10 µM,[2],81%
"CS(=O)(=O)c1ccc(-n2nc(C(F)(F)F)cc2-c2ccc(F)cc2)cc1 [SC-58125, 1-[(4-methysufonyl)phenyl]-3-tri-fluoromethyl-5-(4-fluorophenyl)pyrazole]",pIC50,[3],< 4.60
same,pIC50,[4],< 4.60
"CS(=O)(=O)c1ccc(-c2cc(Br)sc2-c2ccc(F)cc2)cc1 [DUP-697, 5-bromo-2-(4-fluorophenyl)-3-(4-methylsulfonyl) thiophene]",pIC50,[3],< 4.60
same,pIC50,[4],< 4.60
"COC(=O)C1=C(C)NC(C)=C(C(=O)OC)C1c1ccccc1[N+](=O)[O-] [Nifedipine, 1,4-dihydro-2,6-dimethyl-4-(2-nitrophenyl)-3,5-pyridinedicarboxylic acid dimethyl ester]",concentration of maximal effects on the shortening of the ICI,rat bladder; [6],1 µM
same,ICI plateau at higher concentrations,rat bladder; nifedipine above 1 μM in irrigation buffer,approximately 75 % of baseline
same,type of antagonism upon bradykinin-induced contractile responses,"[5]; single agent, 10 min incubation",noncompetitive
same,onset of action,L-type channel,less than 10 minutes
RPPGFSPFR [bradykinin],pEC50,"[5]; read-out: EC50, cumulative concentration-response curve (contraction), agonist on bladder strips of normal animals",8.07
CC(C(=O)O)c1ccc(-c2ccccc2)c(F)c1 (stereo not shown) [Flurbiprofen],pIC50,[3],5.78
same,pIC50,[4],4.61
